Reference: patent US20250108066A1, “TRINUCLEOTIDE CAP ANALOGS AND METHODS OF USE THEREOF” (TriLink BioTechnologies, LLC, priority 2022, published 2025)

Test system: CD-1 mice
Test: In vivo luciferase expression in mice injected with LNP:mRNA (Fluc mRNA capped with cap analog), whole-body bioluminescence imaging
Conditions: female CD-1 mice, LNP:mRNA 1 mg/kg single tail-vein bolus; for in vivo luciferase expression as compared to m7GpppA2′OMepG (Control): integrated flux from 3-48 hours, FIG. 2; for in vivo luciferase expression (translation) as compared to the same compound lacking the 3′OMe group on the m7G: pairwise comparison 3′OMe vs 3′OH on m7G, FIG. 4 / FIG. 2
Method: Female CD-1 mice of 8-9 weeks old were randomized into groups of five animals based on body weight at the beginning of the study (Charles River Laboratories, Discovery Research Services North Carolina). Lipid nanoparticle formulations including mRNA (capped using a cap analog recited in Table 1, N1-methylpseudouridine-5′-Triphosphate (N1-me-PsU) modified firefly luciferase (Fluc) mRNA) (LNP:mRNA) test articles were diluted in PBS to achieve 1 mg/kg delivery in a single bolus by tail-vein injection. The body weight of each mouse was measured once a day for the duration of the study and two blood draws were taken for serum analysis by Mouse Cytokine/Chemokine 26-Plex ProcartaPlex Panel 1 by Luminex platform (Thermo Fisher Scientific; Waltham, MA). Luciferase activity was measured by whole-body bioluminescence imaging on IVIS Spectrum CT system by Perkin Elmer (Greenville, SC) at six time points post mRNA injection (3 hours, 6 hours, 9 hours, 12 hours, 24 hours, and 48 hours hours post-injection). D-luciferin was delivered by intraperitoneal injection 10 minutes prior to each imaging session (150 mg/kg total). The measured luciferase expression results are shown in FIG. 2, showing the integrated flux from 3-48 hours. […] Luminescence intensity scale is on the left.

Row | Compound | in vivo luciferase expression as compared to m7GpppA2′OMepG (Control) | in vivo luciferase expression (translation) as compared to the same compound lacking the 3′OMe group on the m7G
1 | COC1C(OP(=O)(O)OC[C@H]2O[C@@H](n3cnc4c(=O)[nH]c(N)nc43)C(O)C2O)[C@@H](COP(=O)(O)OP(=O)([O-])OP(=O)(O)OC[C@H]2O[C@@H](n3c[n+](C)c4c(=O)[nH]c(N)nc43)C(O)C2OC)O[C@H]1n1cnc2c(N)nc(N)nc21 (stereo in doubt) [Compound 8, ^m7G3′OMeppp(diaminopurine)2′OMepG] | increased in vivo luciferase expression | increased luciferase expression in vivo
2 | COC1[C@@H](OP(=O)(O)OC[C@H]2O[C@@H](n3cnc4c(=O)[nH]c(N)nc43)C(O)[C@H]2O)[C@@H](/C=C/P(=O)(O)OP(=O)([O-])OP(=O)(O)OC[C@H]2O[C@@H](n3c[n+](C)c4c(=O)[nH]c(N)nc43)C(O)[C@H]2OC)O[C@H]1n1cnc2c(N)ncnc21 (stereo partly drawn) [Compound 5, ^m7G3′-OMepppA2′OMe-5′vinylpG] |  | increased luciferase expression in vivo
3 | COC1C(O)[C@H](n2c[n+](C)c3c(=O)[nH]c(N)nc32)O[C@@H]1COP(=O)(O)OP(=O)([O-])OP(=O)(O)OC[C@]12COC(C1OP(=O)(O)OC[C@H]1O[C@@H](n3cnc4c(=O)[nH]c(N)nc43)C(O)C1O)[C@H](n1cnc3c(N)ncnc31)O2 (stereo in doubt) [Compound 2, ^m7G3′OMepppA2′,4′-LNApG] | increased in vivo luciferase expression | increased luciferase expression in vivo
4 | CNc1ncnc2c1ncn2[C@@H]1O[C@H](COP(=O)(O)OP(=O)([O-])OP(=O)(O)OC[C@H]2O[C@@H](n3c[n+](C)c4c(=O)[nH]c(N)nc43)C(O)C2OC)C(OP(=O)(O)OC[C@H]2O[C@@H](n3cnc4c(=O)[nH]c(N)nc43)C(O)C2O)C1OC (stereo partly drawn) [Compound 30, ^m7G3′OMeppp^m6A2′OMepG] | increased in vivo luciferase expression | increased luciferase expression in vivo
5 | C[n+]1cn([C@@H]2O[C@H](COP(=O)(O)OP(=O)([O-])OP(=O)(O)OC[C@]34COC(C3OP(=O)(O)OC[C@H]3O[C@@H](n5cnc6c(=O)[nH]c(N)nc65)C(O)C3O)[C@H](n3cnc5c(N)ncnc53)O4)C(O)C2O)c2nc(N)[nH]c(=O)c21 (stereo in doubt) [Compound 1, ^m7GpppA2′,4′-LNApG] | increased in vivo luciferase expression | 
6 | COC1C(OP(=O)(O)OC[C@H]2O[C@@H](n3cnc4c(=O)[nH]c(N)nc43)C(O)C2O)[C@@H](COP(=O)(O)OP(=O)([O-])OP(=O)(O)OC[C@]23COC(C2O)[C@H](n2c[n+](C)c4c(=O)[nH]c(N)nc42)O3)O[C@H]1n1cnc2c(N)ncnc21 (stereo partly drawn) [Compound 32, ^m7G2′4′LNApppA2′OMepG] | increased in vivo luciferase expression | 
7 | COC1C(OP(=O)(O)OC[C@H]2O[C@@H](n3cnc4c(=O)[nH]c(N)nc43)C(O)C2O)[C@@H](COP(=O)(O)OP(=O)([O-])OP(=O)(O)OC[C@H]2O[C@@H](n3c[n+](C)c4c(=O)[nH]c(N)nc43)C(O)C2OC)O[C@H]1n1cnc2c(N)ncnc21 (stereo partly drawn) [Compound 29, ^m7G3′OmepppA2′OMepG] | increased in vivo luciferase expression | increased luciferase expression in vivo
8 | COC1C(OP(=O)(O)OC[C@H]2O[C@@H](n3cnc4c(=O)[nH]c(N)nc43)C(O)C2O)[C@@H](COP(=O)(O)OP(=O)([O-])OP(=O)(O)OC[C@H]2O[C@@H](n3c[n+](C)c4c(=O)[nH]c(N)nc43)C(OC)C2OC)O[C@H]1n1cnc2c(N)ncnc21 (stereo in doubt) [Compound 25, ^m7G2′OMe3′OMepppA2′OMepG] |  | increased luciferase expression in vivo
